{"source": "ChEMBL document CHEMBL1649129", "about": "“Treatment with the fusion inhibitor enfuvirtide influences the appearance of mutations in the human immunodeficiency virus type 1 regulatory protein rev” (2009)", "assay_type_in_all_cases": "functional", "key": {"[1]": {"system": "Human immunodeficiency virus 1", "test": "Antiviral activity against HIV1 harboring wild type regulatory protein rev isolated from patient with viral infection assessed as viral RNA count after 48 weeks (reference value: 4.9/ml)"}, "[2]": {"system": "Human immunodeficiency virus 1", "test": "Antiviral activity against HIV1 harboring E57A mutant regulatory protein rev isolated from patient with viral infection assessed as viral RNA count after 48 weeks (reference value: 4.9/ml)"}, "[3]": {"system": "Human immunodeficiency virus 1", "test": "Antiviral activity against HIV1 harboring wild type regulatory protein rev isolated from patient with viral infection assessed as change in viral RNA count after 48 weeks relative to control"}, "[4]": {"system": "Human immunodeficiency virus 1", "test": "Antiviral activity against HIV1 harboring E57A mutant regulatory protein rev isolated from patient with viral infection assessed as change in viral RNA count after 48 weeks relative to control"}, "[5]": {"system": "Human immunodeficiency virus 1", "test": "Antiviral activity against HIV1 harboring wild type regulatory protein rev isolated from patient with viral infection assessed as CD4 cell count after 48 weeks (reference value: 146/ul)"}, "[6]": {"system": "Human immunodeficiency virus 1", "test": "Antiviral activity against HIV1 harboring E57A mutant regulatory protein rev isolated from patient with viral infection assessed as CD4 cell count after 48 weeks (reference value: 176/ul)"}, "[7]": {"system": "Human immunodeficiency virus 1", "test": "Antiviral activity against HIV1 harboring wild type regulatory protein rev isolated from patient with viral infection assessed as change in CD4 cell count after 48 weeks relative to control"}, "[8]": {"system": "Human immunodeficiency virus 1", "test": "Antiviral activity against HIV1 harboring E57A mutant regulatory protein rev isolated from patient with viral infection assessed as change in CD4 cell count after 48 weeks relative to control"}}, "data": [{"substance": "enfuvirtide", "values": [{"measurement": "Activity", "setting": "[1]", "value": 4.4, "unit": "log10 copies/mL"}, {"measurement": "Activity", "setting": "[2]", "value": 5.4, "unit": "log10 copies/mL"}, {"measurement": "fold change (FC)", "setting": "[3]", "value": -0.84}, {"measurement": "fold change (FC)", "setting": "[4]", "value": 0.93}, {"measurement": "CD4 count", "setting": "[5]", "value": 192, "unit": "cells/µL"}, {"measurement": "CD4 count", "setting": "[6]", "value": 104, "unit": "cells/µL"}, {"measurement": "fold change (FC)", "setting": "[7]", "value": 56}, {"measurement": "fold change (FC)", "setting": "[8]", "value": -42}]}]}
